Measurements published in patent US20200087258A1, “INHIBITOR OF CITRATE TRANSPORTER AND THEIR USE IN THERAPY” (Eternygen GmbH, priority 2017, published 2020).

Target: INDY (Homo sapiens, UniProt Q86YT5)
Assay: 14C-citrate uptake in HEK293 cells overexpressing recombinant human INDY (NaCT)
Assay type: cell-based
Parameters: expressed in transfected cells; host or cells: HEK293
Method: The compound was obtained by screening of a library containing more than 50,000 lead-like compounds and fragments. The library was tested using a functional citrate uptake assay with HEK293 cells overexpressing recombinant human INDY. The following hit confirmation was conducted in the same assay system. To confirm the activity of selected compounds on the target INDY another cell assay was conducted. In this assay system citrate uptake was measured using HepG2 cells which endogenously express INDY. Furthermore selectivity of selected compounds was tested for two other transporters in different assay systems. The first transporter was the glutamate transporter GLT-1 tested in a glutamate uptake assays using HEK293 cells overexpressing recombinant human GLT-1. The second transporter was the glucose transporter GLUT1 tested in a glucose uptake assay using Huh-7 cells which endogenously express GLUT1. Compounds were considered to be selective with an at least 5-fold higher activity for INDY than for the other two transporters.
Cells were maintained in cell medium using cell culture grade flasks (CellSTACK Corning, 500 cm2 dishes or T175 depending on cell number). The selection antibiotic and G418 (800 μg/ml) was added during cultivation but not for seeding into assay plates. For splitting, cells were washed with PBS (w/o Ca2+, Mg2+, phenol red) and detached with Trypsin/EDTA. Throughout cultivation cells were kept sub-confluent. Detached cells (50,000 cells/well) were seeded in 96-well plates (white, clear bottom from Corning #655098) and incubated over night before usage in the assay. The following media were used. For HEK293 cells expressing INDY MEM (PAA)+10% FCS+1×P/S+2 mM L-Gln; for HEK293 cells expressing GLT-1 DMEM (Gibco)+10% FCS+400 µg/ml G418; for Huh7 cells DMEM (Gibco)+10% FCS+2 mM L-Gin (+1×P/S); for HepG2 cells MEM (PAA, Cat # E15-024)+10% FCS+2 mM L-Gin+1×NEAA+1 mM Na-Pyruvat
The following assay buffers for the particular uptake reaction were used. Citrate uptake buffer: 120 mM NaCl, 5.4 mM KCl, 0.8 mM MgSO4, 5 mM glucose, 1.8 mM CaCl2, 25 mM Hepes, 25 mM MES, pH 6.5. Glutamate uptake buffer: HBSS, 1 mM CaCl2, 1 mM MgCl2, 20 mM Hepes pH 7.4. Glucose uptake buffer: 25 mM Hepes+25 mM MES pH 7.4, 120 mM NaCl, 5.4 mM KCl, 1.8 mM CaCl2, 0.8 mM MgSO4.
INDY mediated citrate uptake was determined in HEK293 cells. To determine the uptake of ^14C labelled citrate into cells, HEK293 cells over-expressing human NaCT were used. Cloning of human NaCT was done in analogy as described in Birkenfeld et al. (Birkenfeld et al., 2011, Cell Metabolism 14, 184-195, 2011).
Human NaCT HEK293 cells were seeded into white clear-bottom 96-well plates (50,000/well) in the presence of 4 μg/ml Poly-D-Lysine and incubated at 37° C. for 16-24 hours. On the days of the assay the plates were washed once with assay buffer using automated washing/LS 405 Selectors, BioTek ending with a buffer volume of 40 μl. Then 5 μl of compound solution in assay buffer was added and incubated for 5-30 min at 37° C. in cell incubator, HERA cell Heraeus. Afterwards 10 μl of substrate 14C-citrate ([…]/[…] per well) were added and incubated for another 20-90 min at 37° C. in cell incubator, HERAcell. Then plates were washed twice with 200 μl ice-cold assay buffer and residual volume was discarded. For cell lysis 50 μl ice-cold NaOH (100 mM) was added and incubated for 15 minutes at RT on a plate shaker. Finally, 200 μl scintillation fluid (scintillator OptiPhase Supermix, Perkin Elmer) was added. After 15 min incubation at RT without shaking, plates were measured using a TopCount reader system (Perkin Elmer). As a positive control 10 mM citrate was applied. It is possible to use this assay also in analogy in a 384-well plate format.

Chain of INDY (Q86YT5 whole entry): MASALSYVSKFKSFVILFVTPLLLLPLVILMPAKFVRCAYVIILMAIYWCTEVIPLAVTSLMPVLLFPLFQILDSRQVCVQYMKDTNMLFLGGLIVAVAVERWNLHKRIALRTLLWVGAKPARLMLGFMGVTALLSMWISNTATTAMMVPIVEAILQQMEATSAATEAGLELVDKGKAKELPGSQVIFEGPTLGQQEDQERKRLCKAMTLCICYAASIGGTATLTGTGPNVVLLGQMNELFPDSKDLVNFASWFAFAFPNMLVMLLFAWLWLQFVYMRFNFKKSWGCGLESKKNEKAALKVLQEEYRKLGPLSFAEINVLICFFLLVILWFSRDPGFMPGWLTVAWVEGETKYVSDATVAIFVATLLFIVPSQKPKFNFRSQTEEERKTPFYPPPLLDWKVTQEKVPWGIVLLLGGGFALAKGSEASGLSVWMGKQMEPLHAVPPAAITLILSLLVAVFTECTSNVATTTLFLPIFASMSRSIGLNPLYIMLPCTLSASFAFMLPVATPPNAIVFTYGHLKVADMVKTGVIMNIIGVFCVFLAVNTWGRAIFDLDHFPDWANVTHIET

Row | IC50 [µM] | SMILES
1 | > 20 | O=C(NCc1ccccc1C(F)(F)F)C1CCN(S(=O)(=O)/C=C/c2ccccc2)CC1 [Example 11, 1-[(E)-2-phenylethenesulfonyl]-N-{[2-(trifluoromethyl)phenyl]methyl}piperidine-4-carboxamide]
2 | 20.6 | N#Cc1ccc(S(=O)(=O)N2CCC(C(=O)NCc3ccccc3F)CC2)cc1 [Example 13, 1-(4-cyanobenzenesulfonyl)-N-[(2-fluorophenyl)methyl]piperidine-4-carboxamide]
3 | > 20 | O=C(NCc1ccc2[nH]cnc2c1)C1CCN(S(=O)(=O)/C=C/c2ccccc2)CC1 [Example 14, N-[(1H-1,3-benzodiazol-5-yl)methyl]-1-[(E)-2-phenylethenesulfonyl]piperidine-4-carboxamide]
4 | > 20 | O=C(NCc1ccccc1F)C1CCN(S(=O)(=O)c2ccc([N+](=O)[O-])cc2)CC1 [Example 17, N-[(2-fluorophenyl)methyl]-1-(4-nitrobenzenesulfonyl)piperidine-4-carboxamide]
5 | > 20 | CS(=O)(=O)c1ccccc1CNC(=O)C1CCN(S(=O)(=O)/C=C/c2ccccc2)CC1 [Example 18, N-[(2-methanesulfonylphenyl)methyl]-1-[(E)-2-phenylethenesulfonyl]piperidine-4-carboxamide]
6 | > 20 | CC(=O)Nc1ccc(S(=O)(=O)N2CCC(C(=O)NCc3ccccc3F)CC2)cc1 [Example 20, 1-(4-acetamidobenzenesulfonyl)-N-[(2-fluorophenyl)methyl]piperidine-4-carboxamide]
7 | 15.2 | Cc1ccccc1CNC(=O)C1CCN(S(=O)(=O)/C=C/c2ccccc2)CC1 [Example 31, N-[(2-methylphenyl)methyl]-1-[(E)-2-phenylethenesulfonyl]piperidine-4-carboxamide]
8 | > 20 | O=C(NCc1ccccc1N1CCOCC1)C1CCN(S(=O)(=O)/C=C/c2ccccc2)CC1 [Example 40, N-{[2-(morpholin-4-yl)phenyl]methyl}-1-[(E)-2-phenylethenesulfonyl]piperidine-4-carboxamide]
9 | > 20 | CC(C)(C)c1ccccc1S(=O)(=O)N1CCC(C(=O)NCc2ccccc2F)CC1 [Example 42, 1-(2-tert-butylbenzenesulfonyl)-N-[(2-fluorophenyl)methyl]piperidine-4-carboxamide]
10 | 11.8 | O=C(NCc1ccccc1F)C1CCN(S(=O)(=O)c2ccc(F)cc2)CC1 [Example 45, 1-(4-fluorobenzenesulfonyl)-N-[(2-fluorophenyl)methyl]piperidine-4-carboxamide]
11 | > 20 | COc1ccc(CNC(=O)C2CCN(S(=O)(=O)/C=C/c3ccccc3)CC2)c(F)c1 [Example 48, N-[(2-fluoro-4-methoxyphenyl)methyl]-1-[(E)-2-phenylethenesulfonyl]piperidine-4-carboxamide]
12 | 14.4 | CC(C)(C)c1ccc(S(=O)(=O)N2CC(C(=O)NCc3ccccn3)C2)cc1 [Example 51, 1-(4-tert-butylbenzenesulfonyl)-N-[(pyridin-2-yl)methyl]azetidine-3-carboxamide]
13 | > 20 | O=C(NCc1ccccc1F)C1CN(S(=O)(=O)c2ccc(C(F)(F)F)cc2)C1 [Example 52, N-[(2-fluorophenyl)methyl]-1-[4-(trifluoromethyl)benzenesulfonyl]azetidine-3-carboxamide]
14 | 15.9 | N#Cc1ccccc1CNC(=O)C1CCN(S(=O)(=O)/C=C/c2ccccc2)CC1 [Example 53, N-[(2-cyanophenyl)methyl]-1-[(E)-2-phenylethenesulfonyl]piperidine-4-carboxamide]
15 | > 20 | CC(C)Oc1ccccc1CNC(=O)C1CCN(S(=O)(=O)/C=C/c2ccccc2)CC1 [Example 54, 1-[(E)-2-phenylethenesulfonyl]-N-{[2-(propan-2-yloxy)phenyl]methyl}piperidine-4-carboxamide]
16 | > 20 | O=C(NCc1ccc(F)cc1)C1CCN(S(=O)(=O)/C=C/c2ccccc2)CC1 [Example 56, N-[(4-fluorophenyl)methyl]-1-[(E)-2-phenylethenesulfonyl]piperidine-4-carboxamide]
17 | > 20 | COc1ccc(S(=O)(=O)N2CCC(C(=O)NCc3ccccn3)CC2)c(OC)c1 [Example 61, 1-(2,4-dimethoxybenzenesulfonyl)-N-[(pyridin-2-yl)methyl]piperidine-4-carboxamide]
18 | > 20 | O=C(NCc1ccccn1)C1CCN(S(=O)(=O)c2c(Cl)cccc2Cl)CC1 [Example 63, 1-(2,6-dichlorobenzenesulfonyl)-N-[(pyridin-2-yl)methyl]piperidine-4-carboxamide]
19 | > 20 | CN(C)c1ccc(S(=O)(=O)N2CCC(C(=O)NCc3ccccn3)CC2)cc1 [Example 64, 1-[4-(dimethylamino)benzenesulfonyl]-N-[(pyridin-2-yl)methyl]piperidine-4-carboxamide]
20 | > 20 | CN(C)c1ccc(S(=O)(=O)N2CCC(C(=O)NCc3ccccc3F)CC2)cc1 [Example 65, 1-[4-(dimethylamino)benzenesulfonyl]-N-[(2-fluorophenyl)methyl]piperidine-4-carboxamide]
21 | 12.9 | COC(=O)c1ccccc1CNC(=O)C1CCN(S(=O)(=O)/C=C/c2ccccc2)CC1 [Example 66, methyl 2-[({1-[(E)-2-phenylethenesulfonyl]piperidin-4-yl}formamido)methyl]benzoate]
22 | 19.7 | O=C(NCc1ccccn1)C1CCN(S(=O)(=O)c2ccc(-c3ccccc3)cc2)CC1 [Example 68, 1-{[1,1′-biphenyl]-4-sulfonyl}-N-[(pyridin-2-yl)methyl]pipendine-4-carboxamide]
23 | > 20 | O=C(NCc1ccccn1)C1CCN(S(=O)(=O)c2ccc(N3CCCC3)cc2)CC1 [Example 70, N-[(pyridin-2-yl)methyl]-1-[4-(pyrrolidin-1-yl)benzenesulfonyl]pipendine-4-carboxamide]
24 | 14.4 | O=C(NCc1ccccn1)C1CCN(S(=O)(=O)c2ccccc2Cl)CC1 [Example 71, 1-(2-chlorobenzenesulfonyl)-N-[(pyridin-2-yl)methyl]pipendine-4-carboxamide]
25 | > 20 | O=C(NCc1ccccc1F)C1CCN(S(=O)(=O)c2ccc(O)cc2)CC1 [Example 72, N-[(2-fluorophenyl)methyl]-1-(4-hydroxybenzenesulfonyl)pipendine-4-carboxamide]
26 | > 20 | O=C(NCc1ccccn1)C1CCN(S(=O)(=O)c2cccc([N+](=O)[O-])c2)CC1 [Example 76, 1-(3-nitrobenzenesulfonyl)-N-[(pyridin-2-yl)methyl]pipendine-4-carboxamide]
27 | > 20 | NC(=O)c1ccc(S(=O)(=O)N2CCC(C(=O)NCc3ccccc3F)CC2)cc1 [Example 77, 1-(4-carbamoylbenzenesulfonyl)-N-[(2-fluorophenyl)methyl]pipendine-4-carboxamide]
28 | > 20 | NC(=O)c1ccccc1CNC(=O)C1CCN(S(=O)(=O)c2cc(Cl)cc(Cl)c2)CC1 [Example 80, N-[(2-carbamoylphenyl)methyl]-1-(3,5-dichlorobenzenesulfonyl)pipendine-4-carboxamide]
29 | > 20 | O=C(NCc1ccccn1)C1CCN(S(=O)(=O)c2cccc(Cl)c2Cl)CC1 [Example 83, 1-(2,3-dichlorobenzenesulfonyl)-N-[(pyridin-2-yl)methyl]pipendine-4-carboxamide]
